The assay relates to protease. Format: biochemical, Aspergillus sp. MTCC 5102.

SMILES strings stand for the structures. Entries after “also recorded” stand apart in the source; their conditions may differ. Where two headings read alike, the source gives them in different places.

As for `O=C(O)CN(CCN(CC(=O)O)CC(=O)O)CC(=O)O` [EDTA, ethylenediamine tetraacetic acid], the “% inhibition” value is 6%, the “Residual specific activity (%)” value was determined as 94% and the “inhibition of the protease activity (in words)” value (shortened to “inhibition … (in words)”) was “not inhibited; also recorded: no inhibition of activity”.

For the compound `[Cl][Hg][Cl]` [HgCl2, mercuric chloride], the “inhibition … (in words)” value was “not inhibited”. For the same compound, where the note is “200 µM”, the “% inhibition” value turned out to be 14% and the “Residual specific activity (%)” value is 86%.

As for `O=S(=O)(F)Cc1ccccc1` [PMSF, phenylmethylsulfonyl fluoride], the “% inhibition” value came out at 100%, the “Residual specific activity (%)” value turned out to be 0% and the “inhibition … (in words)” value was “totally inhibited; also recorded: inhibition of the activity”.

These data come from patent publication EP1692296B1 (priority 2003, dated 2005).
